Laboratory results taken from publication PMC4176318 (ACS Chemical Neuroscience, 2014).

Test system: C57Bl/6J mice
Experiment: Tail suspension test
Format: in vivo, mouse
Conditions: 10 mg/kg i.p., 30 min prior to testing, 6 min trial; saline 143.7 ± 3.3 s

Compound	immobility in TST [s]
COCCCC/C(=N\OCCN)c1ccc(C(F)(F)F)cc1 [fluvoxamine]	59.0 ± 12.5
CN(C)CCCC1(c2ccc(F)cc2)OCc2cc(C#N)ccc21 (centres unmarked) [citalopram]	29.7 ± 14.5
